What was measured:
[1] = Preliminary pharmacokinetic studies (serum exposure); format: in vivo, wild-type mice
[2] = tested on: HBG1 mRNA and HbF protein in bone marrow cells; assay: Induction of fetal hemoglobin by hydroxyurea and I-73 in human CD34+ cell reconstituted immunodeficient mice, with analysis of synergistic effect; format: in vivo, NBSGW mice engrafted with human CD34+ cells
Experimental: The model employed for assessment of induction of fetal hemoglobin by I-73 and hydroxyurea involved the use of human stem cell-reconstituted immunodeficient mice. Specifically, three hundred thousand human CD34-positive cells from G-CSF-mobilized human peripheral blood […] (PBMCs) were injected into the tail veins of NOD.Cg-KitW-41J Tyr+Prkdcscid Il2rgtm1Wjl/ThomJ (NBSGW) mice (JAX Strain No. 026622) on day 0. Twelve weeks later, mice were checked for human cell engraftment by sampling PBMCs from blood taken from the tail vein and staining for expression of murine or human CD45 by flow cytometry. After removing from the study those mice having greater than 10% human cells or less than 1% human cells in their peripheral blood, the remaining mice were randomized into treatment groups based on the human cell percentage. Thirteen weeks post engraftment, treatment was initiated with either hydroxyurea, I-73, or a combination of both compounds. Hydroxyurea was formulated in PBS (pH 7.4) and I-73 was formulated in 5% Cremophor RH 40/20% hydroxypropyl-β-cyclodextrin (Crem-CD) daily. Mice received either PBS or hydroxyurea each morning and I-73 or Crem-CD each afternoon by oral gavage. After twenty days of daily treatment, the mice were euthanized and their bone marrow (femurs, tibia and critae) were individually collected for subsequent analysis.
Bone marrow cell pellets (total 500K cells) were lysed in 20 μL of RLT (QIAGEN, 79216) with 1×β-mercaptoethanol (Gibco, 21985-023) and H2O followed by hybridizations. Hybridizations were done in a total volume of 15 μL [3 μL of RNA lysate added to master mix of 12 μL probe A/B (purchased from IDT), capture probe/reporter probes (NanoString™, XT TagSet-24, 121000602), proteinase K (Fisher Scientific, E00491) and H2O suspended in hybridization buffer]. Samples were hybridized at 65° C. for 22 hr. Following hybridization, the tripartide complexes were purified, immobilized by nCounter Prep Station and imaged by Digital Analyzer (nCounter MAX/FLEX Analysis System), to generate digital counts of barcodes corresponding to each target in the multiplexed reaction. Labeled barcodes obtained from unamplified extracts were counted at 555 images or field of view (FOV). The barcode counts for each sample were recorded in Reporter Code Count (RCC) files that are imported into nSolver analysis software (provided with CodeSet by NS) for quality control evaluation.
To assess levels of fetal hemoglobin by AlphaLISA, cells (200 k bone marrow cells/well) were lysed by resuspending pellets in 200 μL of lysis buffer plus protease inhibitor cocktail (100×), mixed well and incubating at room temperature for 30 minutes on the plate shaker @300 RPMs. Samples were then diluted 1:10 in a new 96-well round bottom plate by taking 10 uL of lysate and adding 90 μL of AlphaLISA immunoassay buffer. To create the “reaction plate”, 20 μL of Acceptor Beads (50 ug/mL final concentration) was added to each well using a multi-channel pipet. 10 uL of diluted cell lysate was added to the wells and mixed well. 20 μL of AlphaLISA immunoassay buffer was added to each well. Biotinylated antibody (final concentration) was then added to each well. The reaction plate on then placed on a plate shaker at 300 rpm for one hour to incubate at room temperature. After the first incubation was complete, 50 μL of Donor Beads ([…] final concentration) was added to each well and mixed well, keeping the plate in the dark. The covered plate was placed on a shaker at 350 rpm for 30 minutes to incubate at room temperature. After incubation, all 100 uL in each to an AlphaPlate in the dark. Plates were read on a VictorNIVO using the “Alpha 96 Well” setting. Alpha reading was programmed as the default setting with emission at 700 ms and 575/110n. […]

CCN1C(=O)[C@@H](NC(=O)c2cccc(C(F)(F)F)c2)[C@@H](c2ccc(F)cc2)c2c([C@@H](C)NC#N)nn(-c3ccccc3)c21 [Compound I-73, N-((4S,5S)-3-((R)-1-cyanamidoethyl)-7-ethyl-4-(4-fluorophenyl)-6-oxo-1-phenyl-4,5,6,7-tetrahydro-1H-pyrazolo[3,4-b]pyridin-5-yl)-3-(trifluoromethyl)benzamide]
serum concentrations relative to that required to inhibit DCN-1 ([1]; dosing at 25 and 100 mg/kg): equivalent to or greater than that required to inhibit DCN-1 | in vivo serum exposure levels ([1]; wild-type mice): predicted to be sufficient for fetal hemoglobin induction | average increase of HbF % over vehicle ([2]; I-73 25 mg/kg alone, WLS ANOVA estimate): 1.11 | percentage of HbF protein by HPLC in GlyA-positive bone marrow cells ([2]; compared with vehicle treatment group, FIG. 7): significant increase | percentage of bone marrow cells expressing human CD45 ([2]; in vivo): did not alter | HbF level on a per erythroid progenitor (GlyA-positive) cell basis by AlphaLISA ([2]; treatment alone): induced increased levels of HbF

From patent US20250163057A1, “DCN-1 MODULATING COMPOUNDS AND METHODS OF USE THEREOF” (Cellarity, Inc., priority 2023, published 2025)
